What was measured:
Assay type in all cases: cell-based
intracellular caspases [1] = assay: Nanowire sandwich assay of intracellular caspase activity, TAMRA-labelled substrate peptide, fluorescence microscope; details: 200 nM apoptosis inducing agent in medium, 4 hours; 555 nm excitation/590 nm emission; FIG. 6D
Protocol: Since the fragments released into cells have TAMRA dye and can be identified by fluorescence microscope, activation of caspases may be confirmed based thereon.
As described in Example 5, peptides were fixed to nanowires using SMPH linker, and the peptide-fixed nanowires were positioned down, cell-fixed nanowire were positioned up, and they were contacted in a sandwich manner and incubated in DMEM containing penicillin (100 units/ml), streptomycin (0.1 mg/ml), 10% FBS and 200 nM Staurosporine (apoptosis inducing agent, Sigma) at 37° C., 5% CO2 for 4 hours.

intracellular caspases [2] = assay: Nanowire sandwich assay of intracellular caspase activity, mass analysis (MALDI-TOF) of substrate peptide; details: 500 nM Staurosporine, 18 hours; FIG. 8C
[3] = system: Protein tyrosine phosphatase (PTP) in HeLa cells; assay: Nanowire sandwich assay of intracellular PTP activity with PTP inhibitors (MALDI-TOF of substrate peptide); details: 100 μM sodium orthovanadate and 40 μM α-bromo-4-hydroxyacetophenone given together, 40 minutes pre-incubation, then 1 hour sandwich incubation, FIG. 5C
Protocol: Specifically, the silicon nanowires prepared in Example 1 were washed with 100% (v/v) isopropyl alcohol before use and dried at room temperature, and then, introduced in 2 ml of toluene solution containing 100 μl of APTMS (Aminopropyl trimethoxysilane), reacted at room temperature for 2 hours, and washed 3 times respectively with toluene, 100% ethanol and distilled water, and finally washed with PBS (Phosphate Buffered Saline) to complete silanization so that the surface of the silicon nanowire has positively charged ammonium group. […]
The cell-fixed nanowires were positioned down, the PTP substrate peptide-fixed nanowires were positioned up, and they were contacted with each other, and then, incubated in DMEM medium containing penicillin (100 units/ml), streptomycin (0.1 mg/ml), and 10% FBS at 37° C., 5% CO2 for 1 hour. After incubation, the cell-fixed silicon nanowires and the peptide-fixed nanowires were separated from each other, and the peptide-fixed nanowires were washed with PBS and introduced in a buffer containing 50 mM Tris-HCl, pH 7.5, 0.5 mM EDTA, and 1 mM DTT (Dithiothreitol), and TEV protease (10 units/150 μl, Invitrogen) were added and treated at room temperature for 2 hours, and then, desalting was conducted with Zip-TIP (MILLIPORE), and changes of peptides were analyzed by MALDI-TOF (Applied Biosystems). […]

**Q.** `CN[C@@H]1C[C@H]2O[C@@](C)([C@@H]1OC)n1c3ccccc3c3c4c(c5c6ccccc6n2c5c31)C(=O)NC4` [Staurosporine] was tested. Which “intracellular caspase activation: TAMRA dye-containing peptide fragments released into the cells” value (intracellular caspases [1]) did it give?
**A.** intracellular caspases are activated

**Q.** What about the “cleavage of caspase substrate peptide (mass peak of 1041 dalton)” value (intracellular caspases [2]) of the same compound?
**A.** cleaved by caspase activated by staurosporine

**Q.** With `[Na+].[Na+].[Na+].[O]=[V]([O-])([O-])[O-]` [sodium orthovanadate] as the compound, how does the “1204 dalton peak (dephosphorylated PTP substrate peptide) in MALDI-TOF” value [3] read?
**A.** remarkably reduced

**Q.** How did the “1204 dalton peak (dephosphorylated PTP substrate peptide) in MALDI-TOF” value [3] turn out when `O=C(CBr)c1ccc(O)cc1` [α-bromo-4-hydroxyacetophenone] was run?
**A.** remarkably reduced
